These results are taken from ChEMBL document CHEMBL1122562, “Synthesis of 3-hydroxy-2- and -4-pyridone nucleosides as potential antitumor agents” (1984).

pIC50: −log10 of the molar value. The source made the active and inactive calls. The calls are words filed in the database; no cut-off is given here.

Experiment [1] deals with P388. Nature of the experiment: Compound was tested in vitro for its inhibitory activity against murine P-388 leukemia at doses ranging from 25 to 400 mg/kg qd 1-5 minimally active T/Cvalues of 125 in this tumor system. In kind it is functional, organism-based. As to conditions: Mus musculus.
Experiment [2] deals with P388. Nature of the experiment: Compound was tested in vitro for its inhibitory activity against murine P-388 leukemia at doses ranging from 25 to 400 mg/kg qd 1-5; minimally active T/Cvalues of 125 in this tumor system. It is filed as functional, organism-based. As to conditions: Mus musculus.
For experiment [3], the system named is P388. Nature of the experiment: Compound was tested in vitro for its inhibitory activity against murine P-388 leukemia. In kind it is functional. As to conditions: Mus musculus, read-out: ID50 (the source's name).

With `O=c1c(O)cccn1[C@@H]1O[C@H](CO)[C@@H](O)[C@@H]1O`, the ID50 entry in experiment [1] was “inactive”.

For the compound `Cc1c(O)c(O)cc[n+]1C1O[C@H](CO)[C@@H](O)[C@@H]1O` (stereo partly drawn), the ID50 entry in experiment [2] is “inactive”.

As for `Cc1nccc(O)c1O`, the pIC50 in experiment [3] was 3.96.

As to `Cc1c(O)c(=O)ccn1C1O[C@H](CO)[C@@H](O)[C@H]1O` (stereo partly drawn), the pIC50 in experiment [3] is 4.22.

`COc1c(C)n(C2O[C@H](CO)[C@@H](O)[C@H]2O)ccc1=O` (stereo partly drawn): the ID50 entry in experiment [2] is “inactive”.

As to `Oc1cccnc1O`, in experiment [3], the pIC50 is 3.52.

With `O=c1c(O)cccn1[C@@H]1O[C@H](CO)[C@@H](O)[C@H]1O`, in experiment [3], the pIC50 is 3.35.

For `CC(=O)OC[C@H]1O[C@@H](n2cccc(OC(C)=O)c2=O)[C@H](OC(C)=O)[C@@H]1OC(C)=O`, in experiment [2], the ID50 entry is “inactive”.
